Like-named read-outs stand apart in the source and are kept apart here. Values belong to the compound of their own block, whether it stands above or below them.
Assays:
[1] = molecular target: T1, JAK2 (Homo sapiens, UniProt O60674); test: Recombinant Human JAK2 Kinase Assay (TRF); type: biochemical; conditions: read-out: JAK2 Potency
T1 construct: host or cells: baculovirus expression system
How it was run: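 Europium-labelled PY100 antibody reported tyrosine phosphorylation of a Neutravidin-captured biotinyl 15-mer peptide by JAK2 (baculovirus-expressed, 15 ng/ml). Conditions: 20 mM HEPES pH 7.2, 0.2 μM ATP, 1 mM MnCl2, 0.1% BSA, DMSO 2.5% final, 20 min at room temperature.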

[2] = molecular target: T2, ALK (Homo sapiens, UniProt Q9UM73); test: ALK Kinase Assay (ELISA/TRF, PLC-γ substrate); type: biochemical; conditions: read-out: ALK Potency
T2 construct: host or cells: baculovirus expression system
How it was run: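 Wells were coated with 10 μg/mL phospholipase C-γ substrate in TBS, and the reaction was started by adding 30 ng/ml ALK enzyme and run at 37° C for 15 minutes. Phosphorylated product was detected with Eu-N1-labeled PT66 antibody, and IC50 values came from sigmoidal variable-slope fits of percent inhibition against log concentration.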

[3] = JAK2 kinase inhibition, 0.2 μM ATP
[4] = ALK kinase inhibition, 1 μM ATP

T1 sequence (O60674 whole entry): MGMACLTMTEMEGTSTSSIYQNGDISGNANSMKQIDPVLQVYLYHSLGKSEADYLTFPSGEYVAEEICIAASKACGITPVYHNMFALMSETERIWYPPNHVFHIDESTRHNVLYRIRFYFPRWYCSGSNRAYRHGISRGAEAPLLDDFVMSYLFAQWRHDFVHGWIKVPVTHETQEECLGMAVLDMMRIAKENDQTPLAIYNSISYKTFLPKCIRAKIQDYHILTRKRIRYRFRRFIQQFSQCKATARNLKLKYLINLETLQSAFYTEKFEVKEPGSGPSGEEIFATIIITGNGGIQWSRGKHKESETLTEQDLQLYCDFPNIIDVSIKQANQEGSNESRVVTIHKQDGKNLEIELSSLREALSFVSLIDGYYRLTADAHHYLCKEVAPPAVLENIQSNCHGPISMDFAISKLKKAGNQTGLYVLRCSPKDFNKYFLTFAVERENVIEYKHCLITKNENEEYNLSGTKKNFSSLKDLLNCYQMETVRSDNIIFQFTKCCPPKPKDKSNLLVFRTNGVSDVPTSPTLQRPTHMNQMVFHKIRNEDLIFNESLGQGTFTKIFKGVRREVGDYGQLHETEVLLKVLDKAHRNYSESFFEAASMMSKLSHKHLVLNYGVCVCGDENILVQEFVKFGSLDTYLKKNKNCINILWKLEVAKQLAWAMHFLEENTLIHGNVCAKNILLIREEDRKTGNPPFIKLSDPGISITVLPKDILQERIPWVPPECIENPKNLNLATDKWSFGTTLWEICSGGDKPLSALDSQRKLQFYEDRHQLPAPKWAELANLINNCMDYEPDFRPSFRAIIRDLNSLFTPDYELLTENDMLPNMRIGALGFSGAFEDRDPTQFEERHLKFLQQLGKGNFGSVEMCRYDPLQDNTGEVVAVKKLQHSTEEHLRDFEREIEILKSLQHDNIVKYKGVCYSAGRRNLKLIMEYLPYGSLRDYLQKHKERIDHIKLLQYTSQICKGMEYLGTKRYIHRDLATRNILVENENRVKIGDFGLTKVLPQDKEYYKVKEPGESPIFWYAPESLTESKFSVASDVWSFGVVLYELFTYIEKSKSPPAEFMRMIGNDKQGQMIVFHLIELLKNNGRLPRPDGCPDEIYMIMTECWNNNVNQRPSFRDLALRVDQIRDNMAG
T2 sequence (Q9UM73 19-1620): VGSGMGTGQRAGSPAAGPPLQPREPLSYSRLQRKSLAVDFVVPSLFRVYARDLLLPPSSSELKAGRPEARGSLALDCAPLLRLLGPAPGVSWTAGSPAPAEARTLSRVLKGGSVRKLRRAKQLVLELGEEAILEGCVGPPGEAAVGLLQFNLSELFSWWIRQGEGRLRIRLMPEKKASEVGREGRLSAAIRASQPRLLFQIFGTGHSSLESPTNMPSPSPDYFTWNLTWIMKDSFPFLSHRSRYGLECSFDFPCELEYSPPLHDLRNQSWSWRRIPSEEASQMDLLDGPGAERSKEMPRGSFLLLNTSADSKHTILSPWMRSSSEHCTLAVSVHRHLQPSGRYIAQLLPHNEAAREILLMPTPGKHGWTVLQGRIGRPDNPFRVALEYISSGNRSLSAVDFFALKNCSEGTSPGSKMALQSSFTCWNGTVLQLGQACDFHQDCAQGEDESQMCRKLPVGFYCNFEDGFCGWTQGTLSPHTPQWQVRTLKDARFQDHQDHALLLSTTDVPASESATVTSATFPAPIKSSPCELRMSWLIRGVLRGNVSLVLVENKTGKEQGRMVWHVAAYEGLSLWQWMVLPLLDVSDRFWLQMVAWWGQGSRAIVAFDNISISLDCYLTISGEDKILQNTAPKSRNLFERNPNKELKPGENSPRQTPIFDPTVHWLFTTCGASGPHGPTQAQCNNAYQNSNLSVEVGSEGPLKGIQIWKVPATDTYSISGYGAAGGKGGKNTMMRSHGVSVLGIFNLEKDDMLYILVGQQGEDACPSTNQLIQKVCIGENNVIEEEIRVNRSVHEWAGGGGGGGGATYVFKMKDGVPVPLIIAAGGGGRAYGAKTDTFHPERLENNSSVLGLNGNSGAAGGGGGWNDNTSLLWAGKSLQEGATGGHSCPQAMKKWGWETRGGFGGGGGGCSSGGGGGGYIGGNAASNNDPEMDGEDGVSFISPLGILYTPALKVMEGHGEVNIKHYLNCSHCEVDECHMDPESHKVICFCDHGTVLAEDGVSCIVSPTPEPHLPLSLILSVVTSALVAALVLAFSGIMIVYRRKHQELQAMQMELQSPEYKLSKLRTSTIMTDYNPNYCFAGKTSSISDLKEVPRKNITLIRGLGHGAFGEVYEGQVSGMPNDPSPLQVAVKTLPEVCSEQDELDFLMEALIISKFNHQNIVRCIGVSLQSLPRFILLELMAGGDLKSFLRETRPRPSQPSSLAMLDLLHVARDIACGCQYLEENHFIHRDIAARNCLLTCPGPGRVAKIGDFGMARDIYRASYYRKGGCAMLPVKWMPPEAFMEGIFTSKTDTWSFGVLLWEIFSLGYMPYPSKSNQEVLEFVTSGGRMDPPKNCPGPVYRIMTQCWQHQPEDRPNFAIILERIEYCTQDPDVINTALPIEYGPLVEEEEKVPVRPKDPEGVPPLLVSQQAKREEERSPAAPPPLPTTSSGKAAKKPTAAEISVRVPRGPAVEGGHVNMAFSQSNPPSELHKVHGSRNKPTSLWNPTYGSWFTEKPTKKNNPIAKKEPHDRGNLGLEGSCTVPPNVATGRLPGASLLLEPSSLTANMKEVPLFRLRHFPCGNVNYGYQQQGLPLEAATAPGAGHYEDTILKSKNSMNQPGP

SMILES: COc1cc(N2CCC(C)(N3CCOCC3)CC2)ccc1Nc1ncc2ccc(-c3ccccc3OC)n2n1 [Example 1467]
IC50 ([1]; JAK2 Kinase Inhibition): < 100 nM
IC50 ([2]; ALK Kinase Inhibition): < 100 nM

SMILES: NC(=O)c1cccc(Nc2ncc3ccc(-c4cccc(Cl)c4)n3n2)c1 [Example 165, 3-[7-(3-Chloro-phenyl)-pyrrolo[2,1-f][1,2,4]triazin-2-ylamino]-benzamide]
IC50 ([1]; JAK2 Kinase Inhibition): < 100 nM
IC50 ([2]; ALK Kinase Inhibition): 1000 to 10000 nM

SMILES: O=S(=O)(c1ccccc1)c1ccc2cnc(Nc3ccc(N4CCOCC4)cc3)nn12 [Example 111, (7-Benzenesulfonyl-pyrrolo[2,1-f][1,2,4]triazin-2-yl)-(4-morpholin-4-yl-phenyl)-amine]
IC50 ([1]; JAK2 Kinase Inhibition): < 100 nM
IC50 ([2]; ALK Kinase Inhibition): 100 to 1000 nM

SMILES: COc1cc(N2CCC(N3CCOCC3)C2)ccc1Nc1ncc2ccc(-c3ccccc3N(C)S(C)(=O)=O)n2n1 (racemic) [Example 782, (±)-N-(2-{2-[2-Methoxy-4-(3-morpholin-4-yl-pyrrolidin-1-yl)-phenylamino]-pyrrolo[2,1-f][1,2,4]triazin-7-yl}-phenyl)-N-methyl-methanesulfonamide]
IC50 [1, 3]: 100 to 1000 nM
IC50 [2, 4]: < 100 nM

SMILES: COc1cc(N2CCC(N3CCOCC3)CC2)ccc1Nc1ncc2ccc(-c3ccccc3CS(C)(=O)=O)n2n1 [Example 549, [7-(2-Methanesulfonylmethyl-phenyl)-pyrrolo[2,1-f][1,2,4]triazin-2-yl]-[2-methoxy-4-(4-morpholin-4-yl-piperidin-1-yl)-phenyl]-amine]
IC50 [1, 3]: 1000 to 10000 nM
IC50 [2, 4]: 100 to 1000 nM

SMILES: COc1cc(C2CCN(CC(N)=O)CC2)ccc1Nc1ncc2ccc(-c3ccccc3C#N)n2n1 [Example 517, 2-(4-{4-[7-(2-Cyano-phenyl)-pyrrolo[2,1-f][1,2,4]triazin-2-ylamino]-3-methoxy-phenyl}-piperidin-1-yl)-acetamide]
IC50 [1, 3]: 100 to 1000 nM
IC50 [2, 4]: < 100 nM

SMILES: COc1cc(N2CCCC(N3CCOCC3)C2)ccc1Nc1ncc2ccc(-c3ccccc3OC)n2n1 (stereo not shown) [Example 1444, [2-Methoxy-4-(3-morpholin-4-yl-piperidin-1-yl)-phenyl]-[7-(2-methoxy-phenyl)-pyrrolo[2,1-f][1,2,4]triazin-2-yl]-amine]
IC50 ([1]; JAK2 Kinase Inhibition): 100 to 1000 nM
IC50 ([2]; ALK Kinase Inhibition): < 100 nM

SMILES: COc1cc(N2CCC(F)(F)CC2)ccc1Nc1ncc2ccc(-c3ccccc3OC)n2n1 [Example 1470, [4-(4,4-Difluoro-piperidin-1-yl)-2-methoxy-phenyl]-[7-(2-methoxy-phenyl)-pyrrolo[2,1-f][1,2,4]triazin-2-yl]-amine]
IC50 ([1]; JAK2 Kinase Inhibition): < 100 nM
IC50 ([2]; ALK Kinase Inhibition): 100 to 1000 nM

SMILES: COc1ccccc1-c1ccc2cnc(Nc3ccc(N4CCCC4)cc3)nn12 [Example 169, [7-(2-Methoxy-phenyl)-pyrrolo[2,1-f][1,2,4]triazin-2-yl]-(4-pyrrolidin-1-yl-phenyl)-amine]
IC50 ([1]; JAK2 Kinase Inhibition): < 100 nM
IC50 ([2]; ALK Kinase Inhibition): 100 to 1000 nM

SMILES: COc1cc(C2CCNCC2)ccc1Nc1ncc2ccc(-c3cccc4c3NC(=O)C4)n2n1 [Example 714, 7-[2-(2-Methoxy-4-piperidin-4-ylphenylamino)pyrrolo[2,1-f][1,2,4]triazin-7-yl]-1,3-dihydro-indol-2-one]
IC50 [1, 3]: 1000 to 10000 nM
IC50 [2, 4]: 1000 to 10000 nM

SMILES: CC1(C)CCC(=O)Nc2cc(Nc3ncc4ccc(-c5ccc(S(C)(=O)=O)cc5)n4n3)ccc21 [Example 92, 8-[7-(4-Methanesulfonyl-phenyl)-pyrrolo[2,1-f][1,2,4]triazin-2-ylamino]-5,5-dimethyl-1,3,4,5-tetrahydro-benzo[b]azepin-2-one]
IC50 ([1]; JAK2 Kinase Inhibition): < 100 nM
IC50 ([2]; ALK Kinase Inhibition): 1000 to 10000 nM

SMILES: COc1cc(N2CCC(N3CCOCC3)CC2)ccc1Nc1ncc2ccc(-c3ccccc3C#N)n2n1 [Example 511, 2-{2-[2-Methoxy-4-(4-morpholin-4-yl-piperidin-1-yl)-phenylamino]-pyrrolo[2,1-f][1,2,4]triazin-7-yl}-benzonitrile]
IC50 [1, 3]: < 100 nM
IC50 [2, 4]: < 100 nM

SMILES: COc1ccccc1-c1ccc2cnc(Nc3ccc4c(c3)NC(=O)CC4)nn12 [Example 981, 7-[7-(2-Methoxy-phenyl)-pyrrolo[2,1-f][1,2,4]triazin-2-ylamino]-3,4-dihydro-1H-quinolin-2-one]
IC50 [1, 3]: < 100 nM
IC50 [2, 4]: 100 to 1000 nM

SMILES: Cc1cc(Nc2ncc3ccc(-c4cccc(Cl)c4)n3n2)ccc1N1CCN(C)CC1 [Example 69, [7-(3-Chloro-phenyl)-pyrrolo[2,1-f][1,2,4]triazin-2-yl]-[3-methyl-4-(4-methyl-piperazin-1-yl)-phenyl]-amine]
IC50 ([1]; JAK2 Kinase Inhibition): < 100 nM
IC50 ([2]; ALK Kinase Inhibition): < 100 nM

SMILES: CC(C)(C)NS(=O)(=O)c1cccc(-c2ccc3cnc(Nc4cccc(OCCN5CCOCC5)c4)nn23)c1 [Example 1001, N-tert-Butyl-3-{2-[3-(2-morpholin-4-yl-ethoxy)-phenylamino]-pyrrolo[2,1-f][1,2,4]triazin-7-yl}-benzenesulfonamide]
IC50 [1, 3]: < 100 nM
IC50 [2, 4]: 100 to 1000 nM

The next lines start with the values.

IC50 [1, 3]: < 100 nM
IC50 [2, 4]: < 100 nM
SMILES: COc1ccc(-c2ccc3cnc(Nc4ccc(C5CCN(C)CC5)c(OC)c4)nn23)cn1 [Example 910, [3-Methoxy-4-(1-methyl-piperidin-4-yl)-phenyl]-[7-(6-methoxy-pyridin-3-yl)-pyrrolo[2,1-f][1,2,4]triazin-2-yl]-amine]

IC50 [1, 3]: < 100 nM
IC50 [2, 4]: 100 to 1000 nM
SMILES: Cn1ncc2cc(Nc3ncc4ccc(-c5cccc(S(=O)(=O)NC(C)(C)C)c5)n4n3)ccc21 [Example 1316, N-tert-Butyl-3-[2-(1-methyl-1H-indazol-5-ylamino)-pyrrolo[2,1-f][1,2,4]triazin-7-yl]-benzenesulfonamide]

IC50 [1, 3]: < 100 nM
IC50 [2, 4]: < 100 nM
SMILES: COc1cc(C2CCNCC2O)ccc1Nc1ncc2ccc(-c3cccc4c3OCC4)n2n1 (stereo not shown) [Example 718, 4-{4-[7-(2,3-Dihydro-benzofuran-7-yl)-pyrrolo[2,1-f][1,2,4]triazin-2-ylamino]-3-methoxy-phenyl}-piperidin-3-ol]

IC50 [1, 3]: < 100 nM
IC50 [2, 4]: 1000 to 10000 nM
SMILES: CS(=O)(=O)Nc1cccc(-c2ccc3cnc(Nc4cnn(CCN5CCOCC5)c4)nn23)c1 [Example 1195, N-(3-{2-[1-(2-Morpholin-4-yl-ethyl)-1H-pyrazol-4-ylamino]-pyrrolo[2,1-f][1,2,4]triazin-7-yl}-phenyl)-methanesulfonamide]

IC50 [1, 3]: < 100 nM
IC50 [2, 4]: < 100 nM
SMILES: NC(=O)CN1CCC(c2ccc(Nc3ncc4ccc(-c5cccc6c5OCC6)n4n3)cc2)CC1 [Example 706, 2-(4-{4-[7-(2,3-Dihydro-benzofuran-7-yl)-pyrrolo[2,1-f][1,2,4]triazin-2-ylamino]-phenyl}-piperidin-1-yl)-acetamide]

IC50 [1, 3]: < 100 nM
IC50 [2, 4]: 100 to 1000 nM
SMILES: CN1CCN(C(=O)C2CCN(c3ccc(Nc4ncc5ccc(-c6cnn(C)c6)n5n4)cc3)CC2)CC1 [Example 1188, (4-Methyl-piperazin-1-yl)-(1-{4-[7-(1-methyl-1H-pyrazol-4-yl)-pyrrolo[2,1-f][1,2,4]triazin-2-ylamino]-phenyl}-piperidin-4-yl)-methanone]

IC50 [1, 3]: < 100 nM
IC50 [2, 4]: < 100 nM
SMILES: Cc1cc(Nc2ncc3ccc(-c4cccc(S(C)(=O)=O)c4)n3n2)ccc1C1CCN(CC(N)=O)CC1 [Example 948, 2-(4-{4-[7-(3-Methanesulfonyl-phenyl)-pyrrolo[2,1-f][1,2,4]triazin-2-ylamino]-2-methyl-phenyl}-piperidin-1-yl)-acetamide]

IC50 [1, 3]: < 100 nM
IC50 [2, 4]: 100 to 1000 nM
SMILES: CC(C)(C)NS(=O)(=O)c1cccc(-c2ccc3cnc(Nc4ccc(C5CCN(CCO)CC5)cc4)nn23)c1 [Example 670, N-tert-Butyl-3-(2-{4-[1-(2-hydroxy-ethyl)-piperidin-4-yl]-phenylamino}-pyrrolo[2,1-f][1,2,4]triazin-7-yl)-benzenesulfonamide]

IC50 [1, 3]: < 100 nM
IC50 [2, 4]: < 100 nM
SMILES: COc1cc(N2CCC(N3CC[C@@H](O)C3)CC2)ccc1Nc1ncc2ccc(-c3ccccc3OC)n2n1 [Example 479, (R)-1-(1-{3-Methoxy-4-[7-(2-methoxy-phenyl)-pyrrolo[2,1-f][1,2,4]triazin-2-ylamino]-phenyl}-piperidin-4-yl)-pyrrolidin-3-ol]

IC50 [1, 3]: < 100 nM
IC50 [2, 4]: < 100 nM
SMILES: COc1ccccc1-c1ccc2cnc(Nc3ccc(C4CCN(CC(N)=O)CC4)cc3)nn12 [Example 660, 2-(4-{4-[7-(2-Methoxy-phenyl)-pyrrolo[2,1-f][1,2,4]triazin-2-ylamino]-phenyl}-piperidin-1-yl)-acetamide]

IC50 [1, 3]: < 100 nM
IC50 [2, 4]: < 100 nM
SMILES: COc1cc([C@@]2(O)CCN(CCF)C[C@@H]2O)ccc1Nc1ncc2ccc(-c3ccccc3OC)n2n1 (racemic) [Example 833, (±)-(3S,4S)-1-(2-Fluoro-ethyl)-4-{3-methoxy-4-[7-(2-methoxy-phenyl)-pyrrolo[2,1-f][1,2,4]triazin-2-ylamino]-phenyl}-piperidine-3,4-diol]

IC50 [1, 3]: < 100 nM
IC50 [2, 4]: > 10000 nM
SMILES: CC(C)(C)NS(=O)(=O)c1cccc(-c2ccc3cnc(Nc4ccc(C5CCN(C(=O)OC(C)(C)C)CC5)cc4)nn23)c1 [Example 1058, 4-{4-[7-(3-tert-Butylsulfamoyl-phenyl)-pyrrolo[2,1-f][1,2,4]triazin-2-ylamino]-phenyl}-piperidine-1-carboxylic acid tert-butyl ester]

IC50 [1, 3]: < 100 nM
IC50 [2, 4]: 100 to 1000 nM
SMILES: CN1CCN(C(=O)c2cccc(Nc3ncc4ccc(-c5cccc(S(=O)(=O)NC(C)(C)C)c5)n4n3)c2)CC1 [Example 891, N-tert-Butyl-3-{2-[3-(4-methyl-piperazine-1-carbonyl)-phenylamino]-pyrrolo[2,1-f][1,2,4]triazin-7-yl}-benzenesulfonamide]

IC50 [1, 3]: < 100 nM
IC50 [2, 4]: < 100 nM
SMILES: COc1ccccc1-c1c(C)c(C)c2cnc(Nc3ccc(N4CCN(C)CC4)cc3)nn12 [Example 1107]

Source: patent US8471005B2 (Cephalon, Inc., priority 2008, dated 2013)
